Measured values taken from patent US11702404B2, “GLP-1R modulating compounds” (priority 2019, dated 2023).
Like-named read-outs stand apart in the source and are kept apart here.

Assays:
[1] = Microsomal stability, human liver microsomes (predicted hepatic clearance); settings: predicted from in vitro microsomal stability data
GLP-1R = GLP-1R (Homo sapiens, UniProt P43220); assay: GLP-1R activation: cAMP increase in CHO cells stably expressing GLP-1R; type: cell-based; settings: read-out: EC50
[2] = cAMP increase, CHO cells stably expressing GLP-1R, 10 point dose response, 30 minutes incubation

Sequence of GLP-1R (P43220 24-463): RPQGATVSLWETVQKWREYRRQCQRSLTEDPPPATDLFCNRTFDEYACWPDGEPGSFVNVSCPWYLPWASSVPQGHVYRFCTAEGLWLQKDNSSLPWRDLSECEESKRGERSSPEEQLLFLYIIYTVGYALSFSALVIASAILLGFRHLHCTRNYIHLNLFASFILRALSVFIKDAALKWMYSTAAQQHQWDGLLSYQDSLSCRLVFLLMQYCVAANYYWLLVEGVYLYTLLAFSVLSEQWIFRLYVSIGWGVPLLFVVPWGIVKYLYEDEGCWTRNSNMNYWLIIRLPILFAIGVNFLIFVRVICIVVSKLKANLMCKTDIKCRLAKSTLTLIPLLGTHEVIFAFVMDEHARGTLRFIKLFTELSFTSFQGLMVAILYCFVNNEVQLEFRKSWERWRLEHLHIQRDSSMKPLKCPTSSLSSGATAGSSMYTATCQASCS

With `COCCn1c(Cc2cc(F)c(-c3cccc(OCc4ccc(C)nc4F)n3)cc2F)nc2ccc(C(=O)O)cc21` [Example 822] the “Predicted Hepatic Clearance (Pred. Cl.)” value [1] was 1.83 mL/min/kg and the EC50 (GLP-1R; [2]) was 3.49 nM.

For `COCCn1c(Cc2cc(F)c(-c3cccc(OCc4ccc(Cl)nc4F)n3)cc2F)nc2ccc(C(=O)O)cc21` [Example 823], the “Predicted Hepatic Clearance (Pred. Cl.)” value [1] was 1.83 mL/min/kg and the EC50 (GLP-1R; [2]) was 19.8 nM.

With `COC(=O)N1CC(Cn2c(Cc3cc(F)c(-c4cccc(OCc5ccc(C#N)cc5F)n4)cc3F)nc3ccc(C(=O)O)cc32)(OC)C1` [Example 824] the “Predicted Hepatic Clearance (Pred. Cl.)” value [1] was 7.67 mL/min/kg and the EC50 (GLP-1R; [2]) was 197 nM.

For `COCCn1c(Cc2cc(F)c(-c3cccc(OCc4ccc(C(N)=O)nc4)n3)cc2F)nc2c(F)cc(C(=O)O)cc21` [Example 825], the “Predicted Hepatic Clearance (Pred. Cl.)” value [1] was 1.83 mL/min/kg and the EC50 (GLP-1R; [2]) was 9.09 nM.

For `NC(=O)c1ccc(COc2cccc(-c3cc(F)c(Cc4nc5ccc(C(=O)O)cc5n4C[C@@H]4CCO4)cc3F)n2)cn1` [Example 826], the “Predicted Hepatic Clearance (Pred. Cl.)” value [1] was 3.67 mL/min/kg and the EC50 (GLP-1R; [2]) was 0.28 nM.

In the case of `N#Cc1ccc(COc2cccc(-c3cc(F)c(Cc4nc5ccc(C(=O)O)cc5n4CCOCC(F)(F)F)cc3F)n2)c(F)c1` [Example 827], the “Predicted Hepatic Clearance (Pred. Cl.)” value [1] is reported as 7.17 mL/min/kg and the EC50 (GLP-1R; [2]) is reported as 1.97 nM.

With `N#Cc1ccc(COc2cccc(-c3cc(F)c(Cc4nc5ccc(C(=O)O)cc5n4CCOCC(F)F)cc3F)n2)c(F)c1` [Example 828] the “Predicted Hepatic Clearance (Pred. Cl.)” value [1] was 8.5 mL/min/kg and the EC50 (GLP-1R; [2]) was 3.5 nM.

With `O=C(O)c1ccc2nc(Cc3ccc(-c4cccc(OCc5ccc(C(F)F)cc5F)n4)cc3F)n(C[C@@H]3CCO3)c2c1` [Example 829] the “Predicted Hepatic Clearance (Pred. Cl.)” value [1] was 1.83 mL/min/kg and the EC50 (GLP-1R; [2]) was 0.18 nM.

In the case of `N#Cc1ccc(COc2cccc(-c3cc(F)c(Cc4nc5ccc(C(=O)O)cc5n4CCOc4ccccc4)cc3F)n2)c(F)c1` [Example 830], the “Predicted Hepatic Clearance (Pred. Cl.)” value [1] is reported as 2.5 mL/min/kg and the EC50 (GLP-1R; [2]) is reported as 448 nM.

With `N#Cc1ccc(COc2cccc(-c3cc(F)c(Cc4nc5c(F)cc(C(=O)O)cc5n4C[C@@H]4CCCO4)cc3F)n2)c(F)c1` [Example 831] the “Predicted Hepatic Clearance (Pred. Cl.)” value [1] was 2.83 mL/min/kg and the EC50 (GLP-1R; [2]) was 0.24 nM.

In the case of `Cc1csc(NCCn2c(Cc3cc(F)c(-c4ccnc(OCc5ccc(C#N)cc5F)n4)cc3F)nc3ccc(C(=O)O)cc32)n1` [Example 832], the “Predicted Hepatic Clearance (Pred. Cl.)” value [1] is reported as 14.3 mL/min/kg and the EC50 (GLP-1R) is reported as 2330 nM.

For `CC(C1CCCO1)n1c(Cc2cc(F)c(-c3cccc(OCc4ccc(C#N)cc4F)n3)cc2F)nc2ccc(C(=O)O)cc21` (centres unmarked) [Example 833], the “Predicted Hepatic Clearance (Pred. Cl.)” value [1] was 9.83 mL/min/kg and the EC50 (GLP-1R; [2]) was 6.41 nM.

For `N#Cc1ccc(COc2cccc(-c3ccc(Cc4nc5ccc(C(=O)O)cc5n4C[C@@H]4CCCO4)cc3F)n2)c(F)c1` [Example 834], the “Predicted Hepatic Clearance (Pred. Cl.)” value [1] was 6.33 mL/min/kg and the EC50 (GLP-1R; [2]) was 0.69 nM.

In the case of `N#Cc1ccc(COc2cccc(-c3cc(F)c(Cc4nc5ccc(C(=O)O)cc5n4CCNc4ccccn4)cc3F)n2)c(F)c1` [Example 835], the “Predicted Hepatic Clearance (Pred. Cl.)” value [1] is reported as 11.2 mL/min/kg and the EC50 (GLP-1R) is reported as 515 nM.

For `COCCn1c(Cc2cc(F)c(-c3cccc(OCc4ccc(C#N)cc4F)n3)cc2F)nc2cc(OC)c(C(=O)O)cc21` [Example 836], the “Predicted Hepatic Clearance (Pred. Cl.)” value [1] was 1.83 mL/min/kg and the EC50 (GLP-1R; [2]) was 9.29 nM.

With `COCCn1c(Cc2cc(F)c(-c3cccc(OCc4ccc(C#N)cc4F)n3)cc2F)nc2cc(Cl)c(C(=O)O)cc21` [Example 837] the “Predicted Hepatic Clearance (Pred. Cl.)” value [1] was 1.83 mL/min/kg and the EC50 (GLP-1R; [2]) was 29.3 nM.

For `N#Cc1ccc(COc2cccc(-c3cc(F)c(Cc4nc5ccc(C(=O)O)cc5n4C4CCCOC4)cc3F)n2)c(F)c1` (centres unmarked) [Example 838], the “Predicted Hepatic Clearance (Pred. Cl.)” value [1] was 4.33 mL/min/kg and the EC50 (GLP-1R; [2]) was 3.6 nM.

With `CC1(Cn2c(Cc3cc(F)c(-c4cccc(OCc5ccc(C#N)cc5F)n4)cc3F)nc3ccc(C(=O)O)cc32)CCOCC1` [Example 839] the “Predicted Hepatic Clearance (Pred. Cl.)” value [1] was 5.83 mL/min/kg and the EC50 (GLP-1R; [2]) was 7.04 nM.

For `N#Cc1ccc(COc2cccc(-c3cc(F)c(Cc4nc5ccc(C(=O)O)cc5n4C[C@@H]4CCCO4)cc3F)n2)c(F)c1` [Example 840], the “Predicted Hepatic Clearance (Pred. Cl.)” value [1] was 4.83 mL/min/kg and the EC50 (GLP-1R; [2]) was 1.11 nM.
